Each structure is given as a SMILES string.

Series [1] deals with T1, p38 MAPKα isoform (MAPK14) (Homo sapiens, UniProt Q16539).
T1 construct: purchased Invitrogen
Kind of series: Enzyme inhibition assay (FRET, Z-LYTE), p38 MAPKα via MAPKAP-K2 activation. It counts as biochemical. Conditions: read-out: Enzyme Inhibition IC50 p38α. In outline:
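Recombinant p38 MAPKα was preincubated with compound for 2 h at RT. Its activity was measured indirectly through activation/phosphorylation of downstream MAPKAP-K2, with a Z-LYTE FRET peptide read-out (coumarin/fluorescein ratio) after a 1 h development step. IC50 came from concentration-response curves of percent inhibition versus an uninhibited control.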

The target of the next series is T2, p38 MAPKγ (MAPK12) (Homo sapiens, UniProt P53778).
T2 construct: purchased Invitrogen
T2 sequence (P53778 1-367): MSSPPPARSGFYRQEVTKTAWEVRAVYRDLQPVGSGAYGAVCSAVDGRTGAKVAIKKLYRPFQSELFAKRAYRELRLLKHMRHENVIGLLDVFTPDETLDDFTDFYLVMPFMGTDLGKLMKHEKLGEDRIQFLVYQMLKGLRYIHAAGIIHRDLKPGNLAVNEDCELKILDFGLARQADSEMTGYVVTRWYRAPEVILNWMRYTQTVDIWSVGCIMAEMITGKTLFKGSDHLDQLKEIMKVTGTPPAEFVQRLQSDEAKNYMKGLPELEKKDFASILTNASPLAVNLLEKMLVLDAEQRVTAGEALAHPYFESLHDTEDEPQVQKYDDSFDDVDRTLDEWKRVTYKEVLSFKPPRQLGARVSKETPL
Kind of series: Enzyme inhibition assay (FRET, Z-LYTE), p38 MAPKγ. It is filed as biochemical. Conditions: read-out: Enzyme Inhibition IC50 p38γ. The method, boiled down:
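Recombinant phosphorylated p38 MAPKγ preincubated 2 h at RT with compound in HEPES buffer, then 2 μM FRET peptide and 100 μM ATP added for 1 h; protease development 1 h. Coumarin/fluorescein emission ratio gave phosphorylation; IC50 from concentration-response versus uninhibited control.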

The subject of series [2] is TNFα release in d-U937 cells. In words: LPS-induced TNFα release in d-U937 cells. It is filed as cell-based, human. As to conditions: Homo sapiens, dU937, relative to 10 μg/mL BIRB796, read-out: LPS/TNFα REC50 d-U937. The method, boiled down: (§1)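 PMA-differentiated (100 ng/ml, 48–72 hr) U937 macrophage-type cells pre-incubated 2 hr with compound, then stimulated 4 hr with 0.1 μg/mL E. coli O111:B4 LPS; supernatant TNFα and IL-8 measured by sandwich ELISA. TNFα inhibition expressed relative to 10 μg/mL BIRB796, giving REC50; IL-8 inhibition versus vehicle, giving IC50.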

Series [3] relates to ICAM-1 induction in BEAS2B cells. Kind of series: Poly I:C-induced ICAM-1 induction in BEAS2B cells. It counts as cell-based, human. As to conditions: Homo sapiens, BEAS-2B, read-out: PolyIC/ICAM1 IC50 BEAS2B. In outline:
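Human bronchial epithelial BEAS2B cells were pre-incubated with compound for 2 hr, then transfected with 1 μg/mL poly I:C. After 18 hr, surface ICAM-1 was measured by cell-based ELISA (OD450-655) and normalized to crystal violet cell counts (OD595). IC50 came from inhibition versus vehicle across the concentration-response curve.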

Series [4] relates to IL-8 release in d-U937 cells. Kind of series: LPS-induced IL-8 release in d-U937 cells. Conditions: Homo sapiens, dU937. It counts as cell-based, human. In outline: as §1
The subject of series [5] is Differentiated U937 cells. Kind of series: Cell viability MTT assay. It counts as cell-based, human. As to conditions: negative = apparent increase in viability; for MTT Assay (Viability) 4 h d-U937, percentage loss of cell viability: 4 hr in 5% FCS; for MTT Assay (Viability) 24 h d-U937, percentage loss of cell viability: 24 h in 10% FCS. In outline: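 Differentiated U937 cells pre-incubated with compound either 4 hr in 5% FCS or 24 h in 10% FCS, then 1 hr MTT. Formazan dissolved in DMSO, absorbance at 550 nm. Percentage viability loss relative to 0.5% DMSO vehicle; apparent increases appear as negative percentages.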
Background: Tetrazolium dyes change colour on reduction, which living cells bring about.

The test system of series [6] is TNFα release in THP-1 cells. In words: LPS-induced TNFα release in THP-1 cells. It is filed as cell-based, human. As to conditions: Homo sapiens. The method, boiled down:
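Human monocytic THP-1 cells stimulated with 3 μg/mL E. coli LPS for 4 hr; supernatant TNFα measured by sandwich ELISA. Inhibition at each concentration versus vehicle control, IC50 from concentration-response curve.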

T1 sequence (Q16539 whole entry, canonical isoform): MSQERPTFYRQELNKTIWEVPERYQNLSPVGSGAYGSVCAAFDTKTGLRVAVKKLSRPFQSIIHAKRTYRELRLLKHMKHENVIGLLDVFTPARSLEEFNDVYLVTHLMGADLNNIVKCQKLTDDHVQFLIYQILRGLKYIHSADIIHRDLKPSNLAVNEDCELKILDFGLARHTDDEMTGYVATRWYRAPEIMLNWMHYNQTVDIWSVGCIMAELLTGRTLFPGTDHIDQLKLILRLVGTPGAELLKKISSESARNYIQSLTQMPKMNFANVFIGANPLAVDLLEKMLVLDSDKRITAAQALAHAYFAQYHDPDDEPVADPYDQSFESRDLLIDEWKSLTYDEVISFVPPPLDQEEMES

As to `COCC(=O)Nc1cc(Oc2c(NC(=O)Nc3cc(C(C)(C)C)nn3-c3ccc(C)cc3)ccc(F)c2F)ccn1` [Example 88, N-(4-(6-(3-(3-tert-butyl-1-p-tolyl-1H-pyrazol-5-yl)ureido)-2,3-difluorophenoxy)pyridin-2-yl)-2-methoxyacetamide], the IC50 is 2090 nM in series [1]; more than 17700 nM on p38 MAPKγ (MAPK12); 1690 nM in series [3]; more than 1770 nM in series [4]; 989 nM in series [6]. The EC50 in series [2] was determined as 27 nM. For the same molecule, the “MTT Assay (Viability) 4 h d-U937, percentage loss of cell viability” value in series [5] is recorded as 12.3%. The “MTT Assay (Viability) 24 h d-U937, percentage loss of cell viability” value in series [5] is reported as 10.0%.

Consider `COCC(=O)Nc1cc(Oc2ccc(NC(=O)Nc3cc(C(C)(C)C)nn3-c3ccc(C)cc3)c(Cl)c2Cl)ncn1` [Example 89, N-(6-(4-(3-(3-tert-butyl-1-p-tolyl-1H-pyrazol-5-yl)ureido)-2,3-dichlorophenoxy)pyrimidin-4-yl)-2-methoxyacetamide], for which the IC50 was 58.8 nM in series [1]; 175 nM on p38 MAPKγ (MAPK12); 1.8 nM in series [3]; 13.4 nM in series [4]; 1.7 nM in series [6]. Also, the EC50 in series [2] amounted to 0.3 nM. The “MTT Assay (Viability) 4 h d-U937, percentage loss of cell viability” value in series [5] is −49.9%. Moreover, the “MTT Assay (Viability) 24 h d-U937, percentage loss of cell viability” value in series [5] is −7.5%.

For `COCC(=O)Nc1nccc(Oc2ccc(NC(=O)Nc3cc(C(C)(C)C)nn3-c3ccc(C)cc3)c(Cl)c2Cl)n1` [Example 90, N-(4-(4-(3-(3-tert-butyl-1-p-tolyl-1H-pyrazol-5-yl)ureido)-2,3-dichlorophenoxy)pyrimidin-2-yl)-2-methoxyacetamide], the IC50 was determined as 45.4 nM in series [1]; 126 nM at p38 MAPKγ (MAPK12); 6.8 nM in series [3]; 2.3 nM in series [4]; 1.3 nM in series [6]. In addition, the EC50 in series [2] was 1.3 nM. Also, the “MTT Assay (Viability) 4 h d-U937, percentage loss of cell viability” value in series [5] is −26.8%. The “MTT Assay (Viability) 24 h d-U937, percentage loss of cell viability” value in series [5] is reported as −0.5%.

As to `COCC(=O)Nc1cc(Oc2ccc(NC(=O)Nc3cc(C(C)(C)C)nn3-c3cccc(CO)c3)c(Cl)c2Cl)ncn1` [Example 92, N-(6-(4-(3-(3-tert-butyl-1-(3-hydroxymethylphenyl)-1H-pyrazol-5-yl)ureido)-2,3-dichlorophenoxy)pyrimidin-4-yl)-2-methoxyacetamide], the IC50 was found to be 25.8 nM in series [1]; 165 nM at p38 MAPKγ (MAPK12); 1.9 nM in series [3]; 9.9 nM in series [4]; 14.2 nM in series [6]. Besides, the EC50 in series [2] came out at 0.9 nM. The “MTT Assay (Viability) 4 h d-U937, percentage loss of cell viability” value in series [5] was −14.4%. Besides, in series [5], the “MTT Assay (Viability) 24 h d-U937, percentage loss of cell viability” value stood at 81.0%.

In the case of `COCC(=O)Nc1cc(Oc2ccc(NC(=O)Nc3cc(C(C)(C)C)nn3-c3ccc(CO)cc3)c(Cl)c2Cl)ncn1` [Example 93, N-(6-(4-(3-(3-tert-butyl-1-(4-hydroxymethylphenyl)-1H-pyrazol-5-yl)ureido)-2,3-dichlorophenoxy)pyrimidin-4-yl)-2-methoxyacetamide], the IC50 stood at 8.9 nM in series [1]; 160 nM at p38 MAPKγ (MAPK12); 0.5 nM in series [3]; 19.2 nM in series [4]; 0.8 nM in series [6]. The EC50 in series [2] was 1.3 nM. Also, the “MTT Assay (Viability) 4 h d-U937, percentage loss of cell viability” value in series [5] is −1.4%. In addition, in series [5], the “MTT Assay (Viability) 24 h d-U937, percentage loss of cell viability” value worked out at 91.5%.

On to `COCC(=O)Nc1nccc(Oc2ccc(NC(=O)Nc3cc(C(C)(C)C)nn3-c3ccc(CO)cc3)c(Cl)c2Cl)n1` [Example 94, N-(4-(4-(3-(3-tert-butyl-1-(4-hydroxymethylphenyl)-1H-pyrazol-5-yl)ureido)-2,3-dichlorophenoxy)pyrimidin-2-yl)-2-methoxyacetamide], for which the IC50 in series [1] was found to be 17 nM; on p38 MAPKγ (MAPK12), 123 nM; in series [3], 8.9 nM; in series [4], 21.6 nM; in series [6], 1 nM. In addition, in series [2], the EC50 worked out at 0.6 nM. The “MTT Assay (Viability) 4 h d-U937, percentage loss of cell viability” value in series [5] is given as 2.3%. The “MTT Assay (Viability) 24 h d-U937, percentage loss of cell viability” value in series [5] was found to be 76.6%.

Regarding `CNC(=O)Nc1cc(Oc2ccc(NC(=O)Nc3cc(C(C)(C)C)nn3-c3ccc(C)cc3)c(Cl)c2Cl)ncn1` [Example 95, 1-(3-tert-butyl-1-p-tolyl-1H-pyrazol-5-yl)-3-(2,3-dichloro-4-(6-(3-methylureido)pyrimidin-4-yloxy)phenyl)urea], the IC50 was found to be 29.9 nM in series [1]; 172 nM at p38 MAPKγ (MAPK12); 1.1 nM in series [3]; 0.2 nM in series [4]; 1.6 nM in series [6]. Moreover, in series [2], the EC50 is 0.2 nM. The “MTT Assay (Viability) 4 h d-U937, percentage loss of cell viability” value in series [5] is on record as −38.0%. Further, the “MTT Assay (Viability) 24 h d-U937, percentage loss of cell viability” value in series [5] came to 22.5%.

Regarding `CNC(=O)Nc1nccc(Oc2ccc(NC(=O)Nc3cc(C(C)(C)C)nn3-c3ccc(C)cc3)c(Cl)c2Cl)n1` [Example 96, 1-(3-tert-butyl-1-p-tolyl-1H-pyrazol-5-yl)-3-(2,3-dichloro-4-(2-(3-methylureido)pyrimidin-4-yloxy)phenyl)urea], the IC50 in series [1] was 21.2 nM; at p38 MAPKγ (MAPK12), 152 nM; in series [3] it was 30 nM; in series [4], 1.9 nM; in series [6] it was 2.6 nM. Further, the EC50 in series [2] was 0.2 nM. Further, the “MTT Assay (Viability) 4 h d-U937, percentage loss of cell viability” value in series [5] is listed as −16.1%. The “MTT Assay (Viability) 24 h d-U937, percentage loss of cell viability” value in series [5] is −13.4%.

For `CNC(=O)Nc1cc(Oc2ccc(NC(=O)Nc3cc(C(C)(C)C)nn3-c3ccc(OC)cc3)c(Cl)c2Cl)ncn1` [Example 97, 1-(3-tert-butyl-1-(4-methoxyphenyl)-1H-pyrazol-5-yl)-3-(2,3-dichloro-4-(6-(3-methylureido)pyrimidin-4-yloxy)phenyl) urea], the IC50 in series [1] was determined as 33.2 nM; at p38 MAPKγ (MAPK12) it was 203 nM; in series [3] it was 1.2 nM; in series [4], 0.1 nM; in series [6], 1.4 nM. The EC50 in series [2] is 0.1 nM. Further, the “MTT Assay (Viability) 4 h d-U937, percentage loss of cell viability” value in series [5] is listed as −27.2%. Moreover, the “MTT Assay (Viability) 24 h d-U937, percentage loss of cell viability” value in series [5] was determined as 32.9%.

As for `CNC(=O)Nc1nccc(Oc2ccc(NC(=O)Nc3cc(C(C)(C)C)nn3-c3ccc(OC)cc3)c(Cl)c2Cl)n1` [Example 98, 1-(3-tert-butyl-1-(4-methoxyphenyl)-1H-pyrazol-5-yl)-3-(2,3-dichloro-4-(2-(3-methylureido)pyrimidin-4-yloxy)phenyl) urea], the IC50 in series [1] stood at 32.5 nM; on p38 MAPKγ (MAPK12), 101 nM; in series [3], 4.1 nM; in series [4] it was 2.7 nM; in series [6], 1.4 nM. In series [2], the EC50 was 1.9 nM. The “MTT Assay (Viability) 4 h d-U937, percentage loss of cell viability” value in series [5] is reported as −25.9%. In series [5], the “MTT Assay (Viability) 24 h d-U937, percentage loss of cell viability” value is on record as −29.3%.

For `CNC(=O)Nc1cc(Oc2ccc(NC(=O)Nc3cc(C(C)(C)C)nn3-c3ccc(CO)cc3)c(Cl)c2Cl)ncn1` [Example 99, 1-(3-tert-butyl-1-(4-hydroxymethylphenyl)-1H-pyrazol-5-yl)-3-(2,3-dichloro-4-(6-(3-methylureido)pyrimidin-4-yloxy)phenyl)urea], the IC50 in series [1] was 23.9 nM; at p38 MAPKγ (MAPK12) it was 145 nM; in series [3], 3.2 nM; in series [4] it was 6.9 nM; in series [6], 1.1 nM. In addition, in series [2], the EC50 worked out at 1 nM. For the same molecule, in series [5], the “MTT Assay (Viability) 4 h d-U937, percentage loss of cell viability” value is 3.7%. Moreover, the “MTT Assay (Viability) 24 h d-U937, percentage loss of cell viability” value in series [5] was determined as 92.4%.

For the origin of these results see patent publication US10000471B2, “Pyrazole P38 map kinase inhibitors” (Respivert Limited, priority 2010, dated 2018).
